Experimental data taken from patent publication US6743790B2, “Factor VIIa inhibitory (thio)urea derivatives, their preparation and their use” (Aventis Pharma Deutschland GmbH, priority 2000, dated 2004).

target: T1, factor VIIa/tissue factor (Homo sapiens, UniProt P08709); test: Factor VIIa (FVIIa) chromogenic assay; assay type: biochemical; conditions: human factor VIIa 5 nM and TF 10 nM, substrate S-2288 500 μM, 25° C., 15 minute preincubation
T1 construct: human factor VIIa and TF (5 nM and 10 nM, respective final concentration)
T1 sequence (P08709 213-466 limits assumed): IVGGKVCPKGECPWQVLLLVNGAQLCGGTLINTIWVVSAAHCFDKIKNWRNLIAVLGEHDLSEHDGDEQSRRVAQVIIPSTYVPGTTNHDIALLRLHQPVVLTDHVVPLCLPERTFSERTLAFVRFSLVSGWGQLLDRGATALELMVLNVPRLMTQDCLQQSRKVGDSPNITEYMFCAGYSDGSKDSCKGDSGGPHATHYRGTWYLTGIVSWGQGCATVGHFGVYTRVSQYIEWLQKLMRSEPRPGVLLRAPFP
T1 sequence (P08709 61-212 limits assumed): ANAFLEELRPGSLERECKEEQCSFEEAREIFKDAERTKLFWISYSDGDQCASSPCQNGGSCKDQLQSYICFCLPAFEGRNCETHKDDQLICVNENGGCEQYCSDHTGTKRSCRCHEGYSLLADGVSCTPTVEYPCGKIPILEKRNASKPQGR
T1 sequence (P13726 33-295 partner): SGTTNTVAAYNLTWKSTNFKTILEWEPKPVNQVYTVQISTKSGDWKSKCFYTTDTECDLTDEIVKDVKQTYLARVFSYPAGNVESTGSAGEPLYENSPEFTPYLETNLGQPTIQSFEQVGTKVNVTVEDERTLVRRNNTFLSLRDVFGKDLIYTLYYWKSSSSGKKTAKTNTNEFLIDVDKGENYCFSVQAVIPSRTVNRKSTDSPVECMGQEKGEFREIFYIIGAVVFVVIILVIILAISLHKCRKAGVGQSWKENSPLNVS
Experimental: The ability of the compounds of the formula I to inhibit factor VIIa or other enzymes like factor Xa, thrombin, plasmin, or trypsin is assessed by determining the concentration of the compound of the formula I that inhibits enzyme activity by 50%, i.e. the IC50 value, which is related to the inhibition constant Ki. Purified enzymes are used in chromogenic assays. The concentration of inhibitor that causes a 50% decrease in the rate of substrate hydrolysis is determined by linear regression after plotting the relative rates of hydrolysis (compared to the uninhibited control) versus the log of the concentration of the compound of formula I. For calculating the inhibition constant Ki, the IC50 value is corrected for competition with substrate using the formula Ki=IC50/{1+(substrate concentration/Km)},
wherein Km is the Michaelis-Menten constant (Chen and Prusoff, Biochem. Pharmacol. 22 (1973), 3099-3108; I. H. Segal, Enzyme Kinetics, 1975, John Wiley & Sons, New York, 100-125; which are incorporated herein by reference).
The inhibitory activity (expressed as inhibition constant Ki(FVIIa)) of the compounds of formula I towards factor VIIa/tissue factor activity was determined using a chromogenic assay essentially as described previously (J. A. Ostrem et al., Biochemistry 37 (1998) 1053-1059 which is incorporated herein by reference). Kinetic assays were conducted at 25° C. in half-area microtiter plates (Costar Corp., Cambridge, Mass.) using a kinetic plate reader (Molecular Devices Spectramax 250). A typical assay consisted of 25 μl human factor VIIa and TF (5 nM and 10 nM, respective final concentration) combined with 40 μl of inhibitor dilutions in 10% DMSO/TBS-PEG buffer (50 mM Tris, 15 mM NaCl, 5 mM CaCl2, 0.05% PEG 8000, pH 8.15). Following a 15 minute preincubation period, the assay was initiated by the addition of 35 μl of the chromogenic substrate S-2288 (D-Ile-Pro-Arg-p-nitroanilide, Pharmacia Hepar Inc., 500 μM final concentration).

**Q.** With `C[C@H](NC(=O)Nc1ccc(C(=N)N)cc1)C(=O)NCc1ccc(C(=N)N)cc1` [Example 1, (S)-N-(4-Carbamimidoylbenzyl)-2-[3-(4-carbamimidoylphenyl)ureido]propionamide] as the molecule, how does the Ki read?
**A.** 14900 nM

**Q.** For `CN(C)c1ccc(CNC(=O)C(Cc2ccccc2)NC(=O)Nc2ccc(C(=N)N)cc2)cc1` (centres unmarked) [Example 2, 2-[3-(4-Carbamimidoylphenyl)ureido]-N-(4-dimethylaminobenzyl)-3-phenylpropionamide], which Ki is on record?
**A.** 20900 nM

**Q.** For `N=C(N)c1ccc(NC(=O)NCC(=O)NCc2ccc(Cl)c(Cl)c2)cc1` [Example 3, 2-[3-(4-Carbamimidoylphenyl)ureido]-N-(3,4-dichlorobenzyl)acetamide], which Ki is on record?
**A.** 970 nM

**Q.** For `CN(C)c1ccc(CNC(=O)CNC(=O)Nc2ccc(C(=N)N)cc2)cc1` [Example 4, 2-[3-(4-Carbamimidoylphenyl)ureido]-N-(4-dimethylaminobenzyl)acetamide], which Ki is on record?
**A.** 1940 nM

**Q.** Which Ki does the source give for `N=C(N)c1ccc(NC(=O)NCC(=O)NC(c2ccccc2)c2ccccc2)cc1` [Example 5, N-Benzhydryl-2-[3-(4-carbamimidoylphenyl)ureido]acetamide] here?
**A.** 730 nM

**Q.** For `N=C(N)c1ccc(NC(=O)NCC(=O)NCc2cccc(Cl)c2)cc1` [Example 6, 2-[3-(4-carbamimidoylphenyl)ureido]-N-(3-chlorobenzyl)acetamide], which Ki is on record?
**A.** 2170 nM

**Q.** Which Ki does the source give for `CC(NC(=O)CNC(=O)Nc1ccc(C(=N)N)cc1)c1ccc(Oc2ccc(Cl)cc2Cl)cc1` (centres unmarked) [Example 9] here?
**A.** 480 nM

**Q.** Which Ki does the source give for `N=C(N)c1ccc(NC(=O)NCC(=O)NC(Cc2ccccc2)c2ccccc2)cc1` (centres unmarked) [Example 15] here?
**A.** 6300 nM

**Q.** With `C[C@H](NC(=O)CNC(=O)Nc1ccc(C(=N)N)cc1)c1ccccc1` [Example 18] as the molecule, how does the Ki read?
**A.** 430 nM

**Q.** Which Ki does the source give for `C[C@@H](NC(=O)CNC(=O)Nc1ccc(C(=N)N)cc1)c1ccccc1` [Example 19] here?
**A.** 20200 nM

**Q.** For `Cc1ccc([C@H](C)NC(=O)CNC(=O)Nc2ccc(C(=N)N)cc2)cc1` [Example 21], which Ki is on record?
**A.** 130 nM

**Q.** Which Ki does the source give for `C[C@H](NC(=O)CNC(=O)Nc1ccc(C(=N)N)cc1)c1ccc2ccccc2c1` [Example 30] here?
**A.** 26 nM

**Q.** With `COc1ccc(Oc2ccc(C(C)NC(=O)CNC(=O)Nc3ccc(C(=N)N)cc3)cc2)cc1` (centres unmarked) [Example 36] as the molecule, how does the Ki read?
**A.** 83 nM

**Q.** With `CC(NC(=O)CNC(=O)Nc1ccc(C(=N)N)cc1)c1ccc(Oc2ccc([N+](=O)[O-])cc2)cc1` (centres unmarked) [Example 37] as the molecule, how does the Ki read?
**A.** 86 nM

**Q.** Which Ki does the source give for `N=C(N)c1ccc(NC(=O)NCC(=O)NCc2ccncc2)cc1` [Example 40] here?
**A.** 7890 nM

**Q.** With `N=C(N)c1ccc(NC(=O)NCC(=O)NC(c2ccccc2)c2ccncc2)cc1` (centres unmarked) [Example 41] as the molecule, how does the Ki read?
**A.** 840 nM

**Q.** Which Ki does the source give for `CC(C)(NC(=O)CNC(=O)Nc1ccc(C(=N)N)cc1)c1ccccc1` [Example 42] here?
**A.** 7620 nM

**Q.** Which Ki does the source give for `N#CC(NC(=O)CNC(=O)Nc1ccc(C(=N)N)cc1)c1ccc(F)cc1` (centres unmarked) [Example 43] here?
**A.** 8470 nM

**Q.** Which Ki does the source give for `N=C(N)c1ccc(NC(=O)NCC(=O)N[C@H]2CCc3ccccc32)cc1` [Example 44] here?
**A.** 1500 nM

**Q.** With `N=C(N)c1ccc(NC(=O)NCC(=O)N[C@H]2CCCc3ccccc32)cc1` [Example 45] as the molecule, how does the Ki read?
**A.** 1410 nM

**Q.** Which Ki does the source give for `CC(NC(=O)CNC(=O)Nc1ccc(C(=N)N)cc1)c1ccc(NC(=O)C2CCNCC2)cc1` (centres unmarked) [Example 49, Piperidine-4-carboxylic acid 4-(1-{2-[3-(4-carbamimidoylphenyl)ureido]acetylamino}-ethyl)phenylamide] here?
**A.** 13 nM

**Q.** For `CC(NC(=O)CNC(=O)Nc1ccc(C(=N)N)cc1)c1ccc(NC(=O)c2cccnc2)cc1` (centres unmarked) [Example 51], which Ki is on record?
**A.** 50 nM

**Q.** For `CC(NC(=O)CNC(=O)Nc1ccc(C(=N)N)cc1)c1ccc(NC(=O)c2cccc(Oc3ccccc3)c2)cc1` (centres unmarked) [Example 52], which Ki is on record?
**A.** 12 nM

**Q.** Which Ki does the source give for `CC(NC(=O)CNC(=O)Nc1ccc(C(=N)N)cc1)c1ccc(NC(=O)CCCN)cc1` (centres unmarked) [Example 54] here?
**A.** 47 nM

**Q.** For `CC(NC(=O)CNC(=O)Nc1ccc(C(=N)N)cc1)c1ccc(C(F)(F)F)cc1C(F)(F)F` (centres unmarked) [Example 60], which Ki is on record?
**A.** 27 nM

**Q.** With `CC(NC(=O)CNC(=O)Nc1ccc(C(=N)N)cc1)c1ccc2c(c1)NC(=O)CO2` (centres unmarked) [Example 61] as the molecule, how does the Ki read?
**A.** 23 nM

**Q.** Which Ki does the source give for `COC(=O)c1cc(C(C)NC(=O)CNC(=O)Nc2ccc(C(=N)N)cc2)ccc1OCc1ccccc1` (centres unmarked) [Example 64] here?
**A.** 33 nM

**Q.** For `CC(NC(=O)CNC(=O)Nc1ccc(C(=N)N)c(Cl)c1)c1ccc2c(c1)OCCO2` (centres unmarked) [Example 68, 2-[3-(4-Carbamimidoyl-3-chlorophenyl)ureido]-N-[1-(2,3-dihydrobenzo[1,4]dioxin-6-yl)ethyl]acetamide], which Ki is on record?
**A.** 3940 nM

**Q.** Which Ki does the source give for `C[C@H](NC(=O)CNC(=O)Nc1ccc(C(=N)N)c(F)c1)c1cccc(Br)c1` [Example 69, N-[(S)-1-(3-Bromophenyl)ethyl]-2-[3-(4-carbamimidoyl-3-fluorophenyl)ureido]-acetamide] here?
**A.** 116 nM

**Q.** Which Ki does the source give for `C[C@H](NC(=O)[C@H](CCC(=O)O)NC(=O)Nc1ccc(C(=N)N)cc1)c1cccc(Br)c1` [Example 70, (S)-4-[((S)-1-(3-Bromophenyl)ethyl)carbamoyl]-4-[3-(4-carbamimidoylphenyl)ureido]-butyric Acid] here?
**A.** 539 nM

tested on: not given; test: not given; conditions: not given

**Q.** For `CN(C)c1ccc(CNC(=O)C(Cc2ccccc2)NC(=O)Nc2ccc(C(=N)N)cc2)cc1` (centres unmarked) [Example 2, 2-[3-(4-Carbamimidoylphenyl)ureido]-N-(4-dimethylaminobenzyl)-3-phenylpropionamide], which melting point is on record?
**A.** 147 °C

**Q.** For `CN(C)c1ccc(CNC(=O)CNC(=O)Nc2ccc(C(=N)N)cc2)cc1` [Example 4, 2-[3-(4-Carbamimidoylphenyl)ureido]-N-(4-dimethylaminobenzyl)acetamide], which melting point is on record?
**A.** 209 to 214 °C
